Measured values as given in patent US6503923B1, “Haloalkoxy imidazonaphthyridines” (ALTANA Pharma AG, priority 1999, dated 2003).

Assays:
[1] = test system: pentagastrin-stimulated acid secretion of perfused rat stomachs; experiment: Antisecretory action in perfused rat stomachs (pentagastrin-stimulated acid secretion in vivo); details: anesthetized CD rat, female, dose 3 μmol/kg i.v., perfused stomach
From the text: Testing of the Antisecretory Action in Perfused Rat Stomachs
The influence of the compounds according to the invention after intravenous administration on the pentagastrin-stimulated acid secretion of perfused rat stomachs in vivo is shown in Table A which follows.
The abdomen of anesthetized rates (CD rat, female, 200-250 g; 1.5 g/kg i.m. urethane) was opened after tracheotomy by means of a median upper abdominal incision and a PVC catheter was fixed transorally in the esophagus and another via the pylorus such that the ends of the tubes just projected into the gastric lumen. The catheter leading from the pylorus led outwards into the right abdominal wall through a side opening.
After thorough rinsing (about 50-100 ml), warm physiological NcCl solution (37° C.) was continuously passed through the stomach (0.5 ml/min, pH 6.8-6.9, Braun-Unita I). The pH (pH meter 632, glass electrode EA 147; φ=5 mm, Metrohm) and, by titration with a freshly prepared 0.01 N NaOH solution to pH 7 (dosimat 665 Metrohm), the secreted HCl were determined in the effluent, in each case collected at an interval of 15 minutes.
The gastric secretion was stimulated by continuous infusion of […] (=1.65 ml/h) of i.v. pentagastrin (left femoral vein) about 30 min after the end of the operation (i.e. after determination of 2 preliminary fractions). […]

Q: With `Cc1nc2c3c(ccn2c1C)[C@@H](OCC(F)(F)F)[C@H](O)[C@@H](c1ccccc1)N3` [Example 1, (7R, 8R, 9R)-2,3-Dimethyl-8-hydroxy-7-(2,2,2-trifluoroethoxy)-9-phenyl-7,8,9,10-tetra-hydroimidazo[1,2-h][1,7]naphthyridine] as the compound, how does the “Inhibition of acid secretion” value [1] read?
A: 100%

Q: And the melting point?
A: 178 to 180 °C
